Laboratory results from patent US12234463B2, “Engineered microorganisms with G3P → 3PG enzyme and/or fructose-1,6-bisphosphatase including those having synthetic or enhanced methylotrophy” (Genomatica, Inc., priority 2018, dated 2025).
Where two headings read alike, the source gives them in different places.

What was measured:
[1] = biological target: T1, Bacillus methanolicus PB1 GapN (NADP-dependent glyceraldehyde-3-phosphate dehydrogenase), cds 10662A (Bacillus methanolicus, UniProt I3E1I1); test: GapN vs. GapA kinetic comparison: catalytic constants of BM PB1 GapN (cds 10662A, Table 18); type: biochemical; conditions: fixed NADP; G3P varied
T1 sequence (I3E1I1 1-481): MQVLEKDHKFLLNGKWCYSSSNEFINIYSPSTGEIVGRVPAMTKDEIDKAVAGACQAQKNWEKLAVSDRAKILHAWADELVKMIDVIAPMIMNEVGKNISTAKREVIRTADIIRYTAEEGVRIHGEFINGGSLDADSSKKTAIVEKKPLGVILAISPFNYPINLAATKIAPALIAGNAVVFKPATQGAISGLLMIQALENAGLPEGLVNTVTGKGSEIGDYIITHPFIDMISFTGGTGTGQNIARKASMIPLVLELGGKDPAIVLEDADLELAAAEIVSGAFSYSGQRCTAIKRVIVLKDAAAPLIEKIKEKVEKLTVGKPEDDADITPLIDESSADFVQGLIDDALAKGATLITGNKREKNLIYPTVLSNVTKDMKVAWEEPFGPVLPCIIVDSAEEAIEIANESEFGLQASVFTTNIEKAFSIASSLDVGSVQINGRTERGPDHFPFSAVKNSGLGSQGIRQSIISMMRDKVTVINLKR

[2] = biological target: T2, Bacillus methanolicus MGA3 GapN (NADP-dependent glyceraldehyde-3-phosphate dehydrogenase), cds 10663A (Bacillus methanolicus, UniProt I3EBG2); test: GapN vs. GapA kinetic comparison: catalytic constants of BM MGA3 GapN (cds 10663A, Table 18); type: biochemical; conditions: fixed NADP; G3P varied
T2 sequence (I3EBG2 1-481): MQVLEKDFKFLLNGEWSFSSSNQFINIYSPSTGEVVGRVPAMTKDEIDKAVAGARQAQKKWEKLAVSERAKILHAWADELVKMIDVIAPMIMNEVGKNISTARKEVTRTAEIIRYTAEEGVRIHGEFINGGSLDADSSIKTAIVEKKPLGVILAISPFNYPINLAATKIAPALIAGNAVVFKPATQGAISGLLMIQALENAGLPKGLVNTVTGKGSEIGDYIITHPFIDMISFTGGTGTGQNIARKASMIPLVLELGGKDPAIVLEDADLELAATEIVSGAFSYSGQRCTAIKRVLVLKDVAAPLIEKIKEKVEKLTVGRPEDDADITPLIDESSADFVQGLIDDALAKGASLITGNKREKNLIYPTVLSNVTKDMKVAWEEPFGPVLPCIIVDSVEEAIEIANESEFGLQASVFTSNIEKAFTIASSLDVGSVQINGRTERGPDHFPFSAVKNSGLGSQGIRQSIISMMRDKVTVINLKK

[3] = test system: E. coli fructose-6-phosphate aldolase (F6P aldolase, fsa), wild type; conditions: cited from earlier work; for Km: purified enzyme
[4] = test system: E. coli transketolase A (TktA); conditions: ref. [3], cited from earlier work
[5] = test system: B. methanolicus transketolase; conditions: ref. [2] Markert et al., cited from earlier work
[6] = test system: dihydroxyacetone synthase from Mycobacter sp. strain JC1 DSM 3803; conditions: cited from earlier work
[7] = test system: E. coli fructose-6-phosphate aldolase (F6P aldolase, fsa) variant A129S; conditions: cited from earlier work
[8] = test system: E. coli ribose 5-phosphate isomerase A (RpiA); conditions: read-out: Michaelis constant for ribose 5-phosphate; cited from earlier work
[9] = test system: E. coli ribose 5-phosphate isomerase B (RpiB); conditions: read-out: Michaelis constant for ribose 5-phosphate; cited from earlier work
[10] = reaction substrates, read-out: KM (substrates)
[11] = reaction products, read-out: KM (products)
[12] = fold reduction compared to wild type enzyme

For `O=C[C@H](O)COP(=O)(O)O` [glyceraldehyde 3-phosphate], the Km [1] was 1.1 ± 0.3 mM, the “kcat (G3P)” value [1] was 8.9 ± 0.8 S^−1 and the Km [2] was 1.6 ± 0.1 mM. The “kcat (G3P)” value [2] was 9.5 ± 0.8 S^−1, the Km [3] was 0.8 mM and the Km [4, 10] was 2.1 mM. For the same compound, the Km [5, 10] was 920 µM.
In the case of `O=C(CO)[C@@H](O)[C@H](O)[C@H](O)[C@H](O)COP(=O)(O)O` [sedoheptulose 7-phosphate], the Km [4, 10] is listed as 4 mM.
In the case of `C=O` [formaldehyde], the Km ([6]; read-out: Km for formaldehyde) is listed as 1860 µM.
In the case of `O=C(CO)[C@@H](O)[C@H](O)COP(=O)(O)O` [xylulose 5-phosphate], the Km ([6]; read-out: Km for xylulose 5-phosphate) is given as 33.3 µM, the Km [4, 11] is given as 0.16 mM and the Km [5, 11] is given as 150 µM.
In the case of `O=C[C@H](O)[C@H](O)COP(=O)(O)O`, the Km [4, 11] is given as 0.09 mM.
In the case of `O=C(CO)CO` [dihydroxyacetone], the Km [3] is listed as 35 mM and the “improved reactivity towards DHA in terms of Kcat/Km” value ([7]; fold improvement) is listed as “over 17 fold”.
For `CC(=O)CO` [hydroxyacetone], the “reduced catalytic efficiency on hydroxyacetone” value [7, 12] is given as “more than 3 fold”.
For `O=P(O)(O)OC[C@H]1OC(O)(CO)[C@@H](O)[C@@H]1O` (stereo partly shown) [fructose 6-phosphate], the “Vmax for fructose 6-phosphate cleavage” value ([3]; 30 degrees C., pH 8.5, 50 mm glycylglycine buffer) is listed as 7 units/mg of protein, the Km [3] is listed as 9 mM and the Km [4, 10] is listed as 1.1 mM. For the same compound, the Km [5, 10] was 720 µM.
For `O=P(O)(O)OC[C@H]1OC(O)[C@H](O)[C@@H]1O` (stereo partly shown) [ribose 5-phosphate], the Km [8] is given as 4.4 mM, the Km [9] is given as 830 µM and the Km [4, 11] is given as 1.4 mM. For the same compound, the Km [5, 11] was 120 µM.
For `O=CCO` [glycoaldehyde], the “reduced affinity for glycoaldehyde” value [7, 12] is given as “more than 3 fold”.
